From US20130225535A1, “SYNERGISTIC FUNGICIDAL COMPOSITION” (MAKHTESHIM CHEMICAL WORKS LTD., priority 2010, published 2013)

How the values were obtained:
Plasmopara viticola = test: Control of Plasmopara viticola (downy mildew) on detached grapevine leaves, ED90 by Probit analysis, synergy by Wadley method; assay type: in vivo; conditions: detached grape leaves, spray before inoculation, 7-10 days after inoculation
Experimental: (§1) A synergistic effect exists whenever the action of an active ingredient combination is greater than the sum of the actions of the individual components. The Wadley Method is well-known method for determining whether synergy exists. In the Wadley Method, synergistic activity is determined from dose, response curves. With this method, the efficacy of the active ingredient (“a.i.”) is determined by comparing the degree of fungal attack on treated plants with that on untreated, similarly inoculated and incubated check plants. Each a.i. is generally tested at multiple (e.g., six) concentrations and dose response curves are generated. The dose response curves are used to establish the ED90 (i.e., estimated concentration required to produce 90% killing of fungi) of the individual compounds as well as of the combinations (ED90observed). The experimentally found values of the mixture at a given weight ratio are compared with the values that would have been found where only a complementary efficacy of the components was present (ED90 (A+B) expected). The ED90 (A+B) expected is generally calculated according to Wadley (Levi et al., EPPO-Bulletin 16, 1986, 651-657) or (Wadley, F. M., U.S. Dep. Agric., Agric. Res. Adm., Bur. Entomol. And Plant Quar. ET-223, 1945, 8) as follows:
(§2) wherein a and b are the weight ratios of the compounds A and B in the mixture and the indexes (A), (B) and (A+B) refer to the observed ED90values of the compounds A, B or the A+B mixture thereof. The ratio ED90 (A+B)expected/ED90 (A+B)observed expresses the level of the synergistic factor (SF).
A trial was conducted to in order to estimate the synergistic interaction between three fungicides in controlling the oomycete, Plasmopara viticola, the downy mildew causal agent, in grapevines.
Commercially available compositions of dimethomorph (Sphinx 50 SC), folpet (Folpan 80 WDG) and fosetyl-Al (Aliette 80 WDG), as well as 80 wt. %, WDG composition comprising a combination of dimethomorph, folpet and fosetyl-Al (mixed at a weight ratio of 1:5:10) were suspended in water, diluted to a series of concentrations in water and sprayed onto the lower leaf surface of detached grape leaves to initial run off.
Two cultivars of grapevines (Vitis vinifera) were used: Carinian and Merlo, both susceptible to P. viticola. Grafted Carinian plants were grown in pots in the greenhouse whereas Merlo vines were grown in the field. Plants were regularly sprayed with appropriate fungicides to protect them against powdery mildew (Uncinulla necator). In total, five experiments were conducted, three with Carinian and two with Merlo.
The 3rd and the 4th leaf from top of a branch were detached, sprayed on lower leaf surface with a fungicide, three leaves per fungicide per concentration per cultivar, and placed lower surface uppermost on moist filter paper in a plastic tray (70×50×5 cm). Normally, one tray served for one cultivar and one fungicide and contained 27 leaves (21 leaves treated with 7 doses of a fungicide+6 control untreated leaves).
Trays with the sprayed leaves were placed in a ventilated hood for about one hour until the spray droplets dried off and thereafter were inoculated with the pathogen.
An isolate of P. viticola was propagated on detached leaves of Carinian by repeated inoculations. Sporangia were harvested from freshly sporulating leaves into ice-cold distilled water, their concentration adjusted to 1×10^5 sporangia/ml. Sporangial suspension was sprayed onto the lower surface of the treated and control leaves laying in the trays. Trays were thereafter wrapped with cellophane bags, kept at 15° C. in the dark for 20 h and then at 20° C. under 14 h light photoperiod. At 7-10 days after inoculation, disease development was recorded by visual estimation of the leaf area occupied with sporophores and spores of P. viticola.
Mean sporulating leaf area was then calculated for each treatment (n=3, n for control=6). A mean value was calculated for all four controls in an experiment. […]

[1] = test system: DMM-resistant isolates of Pseudoperonospora cubensis; test: Control of DMM-resistant isolates of Pseudoperonospora cubensis on intact cucumber plants, ED90 and Wadley synergy; assay type: in vivo; conditions: for ED90 observed Trial 1: Trial 1, downy mildew lesions per leaf; for ED90 observed Trial 2: Trial 2, downy mildew lesions per leaf
Experimental: as §1, §2
A trial was conducted to estimate the synergistic interaction between three fungicides in controlling DMM-resistant isolates of P. cubensis, the causal agent of downy mildew in cucurbits.
Commercially available compositions of dimethomorph (Sphinx 50 SC), folpet (Folpan 80 WDG) and fosetyl-Al (Aliette 80 WDG), as well as 80 wt. %, WDG composition comprising a combination of dimethomorph, folpet and fosetyl-Al (mixed at a weight ratio of 1:5:10) were suspended in water, diluted to a series of concentrations in water, and sprayed initial run off.
Two isolates of P. cubensis were used. Intact, two-true leaf cucumber plants (n=2) were used for inoculation. Inoculation and incubation were conducted according to the description in example 1, except that sporangial concentration was adjusted to 2×103 sporangia/ml. Disease records were taken by counting the number of downy mildew lesions per leaf (n=4). Data analysis was done as described in Example 1.

Structure (SMILES)	ED90 observed Trial 1 (Plasmopara viticola) [µg/mL]	ED90 observed Trial 2 (Plasmopara viticola) [µg/mL]	ED90 observed Trial 3 (Plasmopara viticola) [µg/mL]	ED90 observed Trial 4 (Plasmopara viticola) [µg/mL]	ED90 observed Trial 5 (Plasmopara viticola) [µg/mL]	ED90 observed Trial 1 [1] [µg/mL]	ED90 observed Trial 2 [1] [µg/mL]
CCO[PH](=O)O [Fosetyl-Al, fosetyl-Al]	936	1522	611	274	297	2088	508
COc1ccc(C(=CC(=O)N2CCOCC2)c2ccc(Cl)cc2)cc1OC [Dimethomorph, dimethomorph]	2.42	1.81	0.91	3.95	2.25	701	424
O=C1c2ccccc2C(=O)N1SC(Cl)(Cl)Cl [Folpet, folpet]	65.8	30.6	57.1	61.8	39.8	254	81
